Like-named read-outs stand apart in the source and are kept apart here. Positions of bridges follow the written chain, without caps; N, C: chain ends. Non-standard residues stand in square brackets, D forms with d. Residues, ends and D or L forms follow the SMILES beside them. No end group written: not given here.

One data set relates to THP-1 cells. Nature of the data set: Agonist activity: agent in the lower compartment of the THP-1 migration chamber. Conditions: agent in place of chemokine.
The test system of data set [1] is fMLP induced THP-1 migration. Nature of the data set: THP-1 chemotaxis assay, fMLP as chemoattractant. The data set is classed as cell-based. As to conditions: Homo sapiens, fMLP is not a chemokine, read-out: ED50, fMLP chemotaxis assay. The procedure: To determine whether an agent inhibits a chemokine-induced activity, such as macrophage recruitment, varying amounts of the agent are mixed with cells in the presence of a known chemoattractant. For example, a range of known concentrations of an agent, e.g., a chemokine peptide, is incubated with a defined number (e.g., 10^4-10^6) of human THP-1 monocyte cells in individual wells of the top compartment of a trans-well plate. Chemokine (such as MCP-1, MIP1α, IL8 or SDF-1α), at a concentration known to cause significant migration of THP-1 cells in the trans-well migration assay, is placed in the lower compartment (FIG. 1). Cells are then incubated at 37° C. for a period sufficient to allow migration, e.g., 4 hours. After incubation, the cells are gently removed from the top of the filter with a pipette, 20 μl of 20 mM EDTA in simple PBS is added into each top well, and incubated for 20 minutes at 4° C. The filter is carefully flushed with media using a gentle flow, and removed. A standard curve consisting of a two-fold dilution series of THP-1 cells (in 29 μl) is prepared to accurately quantify the number of cells that have migrated. […] Absorbance of converted dye is measured at a wavelength of 595 nm using an ELISA plate reader. The number of migrated cells in each well is then determined by interpolation of the standard curve (see also Imai et al., J. Biol. Chem., 272, 15036 (1997)). […]

Data set [2] in a line: Mouse LD50 (modified LD50 technique). The data set is classed as in vivo. As to conditions: for LD50: IV.
Another data set deals with CD4 T cells. Conditions: 5 ng.
Data set [3] deals with lung CD3, CD4, B220 cells. The data set can be described thus: Lung cell number and type in normal mice. The data set is classed as in vivo, mouse. As to conditions: high dose, all routes of administration, versus PBS controls. As to the method: To determine whether increasing doses of CRD-Leu4Ile11Cys13 peptide 3(3-12)[MCP-1] alters the cell number and type of cell within the lungs of normal mice, mice were injected intravenously, intravenously and intratracheally, or intratracheally alone with CRD-Leu4Ile11Cys13 peptide 3(3-12)[MCP-1]. Mice were sacrificed at 20-24 hours post injection. Lungs were collected for isolation of cells, which were subsequently counted and characterized by surface staining for CD3, CD4, CD8, B220, and Mac-1.

In data set [4] the test system is antigen specific antibody recall response. The data set can be described thus: Cynomolgus monkeys immunized with scFv antigen. The data set is classed as in vivo. As to conditions: single dose 50 mg/kg i.v. As to the method: Cynomolgus monkeys were immunized with antigen that is a single chain Fv (scFv) protein. Each animal previously received 3 i.v. injections of the antigen and all developed high serum titers. Five animals were randomly divided into 2 groups. Two animals served as PBS treated controls and 3 were treated i.v. with 50 mg/kg CRD-Leu4Ile11Cys13 peptide 3(3-12)[MCP-1]. Thirty minutes following CRD-Leu4Ile11Cys13 peptide 3(3-12)[MCP-1] treatment all animals were challenged i.v. with 3.5 mg/kg antigen. In addition, animals were challenged intradermal with each of the following in a volume of 50 μl:PBS; 50 μg antigen; 5 μg antigen; 0.5 μg antigen; 500 ng MCP-1; or 50 ng LPS. Serum was collected at 10 minutes, 30 minutes, 60 minutes, 4 hours, and 24 hours. Animals were sacrificed 24 hours after CRD-Leu4Ile11Cys13 peptide 3(3-12)[MCP-1] injection and complete necropsy performed and tissues fixed for histopathology. Fixed and frozen skin samples were harvested for histopathology and immunohistochemistry. […] Blood was also analyzed pre- and post-CRD-Leu4Ile11Cys13 peptide 3(3-12)[MCP-1] injection for hematology parameters and serum chemistry. Serum levels were evaluated by an LC-MS method (limit of quantitation=1 μg/ml) pre-treatment and then at 10 minutes, 30 minutes, 60 minutes, 4 hours and 20-24 hours after injection. […]

For the compound “SYRRITSSKCPKEAV [peptide 2(1-15)[MCP-1]]”, the agonist activity entry in the data set on THP-1 cells is on record as “weak agonist properties”.

For the compound `C=CCCCCCCCCC(=O)N[C@H]1CCC(=O)NC1=O` [A-I (NR58.4), [3S]-3-(undec-10-enoylamino)piperidine-2,6-dione], the EC50 in data set [1] is over 100 µM.

As to `CC[C@@H](C)[C@H]1NC(=O)[C@@H](CCC(N)=O)NC(=O)[C@H](N)CSSC[C@H](C(N)=O)NC(=O)[C@@H](CC(C)C)NC(=O)[C@@H](CC(=O)O)NC(=O)[C@H]2CCCN2C(=O)[C@@H](CCCCN)NC(=O)[C@@H](CCC(N)=O)NC(=O)[C@@H](CCCCN)NC(=O)[C@@H](Cc2c[nH]c3ccccc23)NC1=O` (H-[dC][dQ][dI][dW][dK][dQ][dK][dP][dD][dL][dC]-NH2; disulfide 1-11; N-terminus assumed), the “lethality after intraperitoneal administration” value in data set [2] (11 mg i.p.) is given as “did not result in lethality”. The LD50 was determined as 11.4 mg/mouse in data set [2] and 569 mg/kg in data set [2] (in vivo, read-out: LD50). Further, the “reduction of ConA proliferation of CD4 T cells” value in the data set with CD4 T cells is listed as under 3%. Besides, the “percentages of CD3, CD4 and B220 cells in lungs of normal mice” value in data set [3] is “significantly reduced”. For the same compound, the “antigen specific antibody response in splenocyte, lymph node and PBL recall responses” value in data set [4] is “reduced antigen specific antibody response”. For the same compound, the agonist activity result in the data set with THP-1 cells is reported as “No agonist activity was detected in the concentration range where inhibitory effects on chemokine-induced migration are seen (<1 μM)”.
